What all share (type): functional
Assay [1] concerns Tetranychus urticae. The experiment in a line: Acaricidal activity against Tetranychus urticae (two-spotted spider mite) assessed as mite mortality at 200 ppm relative to untreated control.
Assay [2] relates to Tetranychus urticae. The experiment in a line: Acaricidal activity against Tetranychus urticae (two-spotted spider mite) assessed as mite mortality at 50 ppm relative to untreated control.
Assay [3] has as its system Tetranychus urticae. The experiment in a line: Acaricidal activity against Tetranychus urticae (two-spotted spider mite) assessed as mite mortality at 500 ppm relative to untreated control.

A value given as a limit tells only on which side of the number the result lay.

Usually mortality stands for the percentage killed.

Regarding `CCc1nn(C)c(C(=O)Nc2nnc(C(F)(F)F)s2)c1Cl`, in the assay on Tetranychus urticae [1], the mortality at 200 ppm is > 80%.
Take `Cc1nc(C(C)(C)C)sc1C(=O)Nc1nnc(C(F)(F)C(F)(F)F)s1`: the mortality at 50 ppm in the assay with Tetranychus urticae [2] is > 80%.
For `CCc1nc(C)c(C(=O)Nc2nnc(C(F)(F)C(F)(F)C(F)(F)F)s2)s1`, in the assay on Tetranychus urticae [3], the mortality at 500 ppm was < 80%.
Still for that read-out and setting: to `Cn1nc(C2CC2)c(Cl)c1C(=O)Nc1nnc(C(F)(F)F)s1` belongs > 80%.
On to `Cn1nc(C(C)(C)C)c(I)c1C(=O)Nc1nnc(C(F)(F)F)s1`, for which the mortality at 500 ppm in the assay with Tetranychus urticae [3] is < 80%.
On to `Cc1nc(C(C)(C)C)sc1C(=O)Nc1nnc(C(F)(F)F)s1`, for which, in the assay with Tetranychus urticae [3], the mortality at 500 ppm is < 80%.
On to `Cc1nc(C)c(C(=O)Nc2nnc(C(F)(F)C(F)(F)C(F)(F)F)s2)s1`, for which the mortality at 500 ppm with Tetranychus urticae [3] was > 80%.
Consider `CCC(C)c1nn(C)c(C(=O)Nc2nnc(C(F)(F)F)s2)c1Cl` (stereo unspecified), for which the mortality at 200 ppm with Tetranychus urticae [1] is > 80%.
On to `Cn1nc(C(C)(C)C)c(Cl)c1C(=O)Nc1nnc(C(F)(F)C(F)F)s1`, for which the mortality at 500 ppm in the assay on Tetranychus urticae [3] was < 80%.
With `Cn1nc(C(C)(C)C)c(Cl)c1C(=O)Nc1nnc(C(F)(F)C(F)(F)F)s1`, the mortality at 50 ppm in the assay on Tetranychus urticae [2] is > 80%.
Turning to `CCCCc1nn(C)c(C(=O)Nc2nnc(C(F)(F)F)s2)c1Cl`, the mortality at 500 ppm in the assay with Tetranychus urticae [3] was > 80%.
On to `Cn1nc(C(C)(C)C)cc1C(=O)Nc1nnc(C(F)(F)F)s1`, for which the mortality at 500 ppm in the assay with Tetranychus urticae [3] is < 80%.
With `Cn1nc(C(C)(C)C)c(Cl)c1C(=O)Nc1nnc(C(F)(F)C(F)(F)C(F)(F)C(F)(F)F)s1`, the mortality at 50 ppm in the assay with Tetranychus urticae [2] is > 80%.
As for `Cn1nc(C(C)(C)C)c(Br)c1C(=O)Nc1nnc(C(F)(F)F)s1`, the mortality at 200 ppm in the assay on Tetranychus urticae [1] was > 80%.
Still for that read-out and setting: to `CCCc1nn(C)c(C(=O)Nc2nnc(C(F)(F)F)s2)c1Cl` belongs > 80%.
Take `Cc1nc(C(C)(C)C)sc1C(=O)Nc1nnc(C(F)(F)C(F)(F)C(F)(F)F)s1`: the mortality at 50 ppm in the assay with Tetranychus urticae [2] was > 80%.
Take `CC(C)c1nn(C)c(C(=O)Nc2nnc(C(F)(F)F)s2)c1Cl`: in the assay with Tetranychus urticae [1], the mortality at 200 ppm is > 80%.
Regarding `Cc1nc(C(C)C)sc1C(=O)Nc1nnc(C(F)(F)C(F)(F)C(F)(F)F)s1`, in the assay on Tetranychus urticae [3], the mortality at 500 ppm is < 80%.
For `Cn1nc(C(C)(C)C)c(Cl)c1C(=O)Nc1nnc(C(F)(F)C(F)(F)C(F)(F)C(F)(F)C(F)(F)F)s1`, in the assay on Tetranychus urticae [2], the mortality at 50 ppm is > 80%.
Consider `Cn1nc(C(C)(C)C)c(Cl)c1C(=O)Nc1nnc(C(F)(F)F)s1`, for which the mortality at 50 ppm in the assay with Tetranychus urticae [2] is > 80%.
In the case of `Cc1nn(C)c(C(=O)Nc2nnc(C(F)(F)F)s2)c1Cl`, the mortality at 200 ppm with Tetranychus urticae [1] is > 80%.
Regarding `Cn1nc(C(C)(C)C)c(Cl)c1C(=O)Nc1nnc(C(F)(F)C(F)(F)C(F)(F)C(F)(F)C(F)(F)C(F)(F)F)s1`, the mortality at 500 ppm with Tetranychus urticae [3] was < 80%.
`Cn1nc(C(C)(C)C)c(Cl)c1C(=O)Nc1nnc(C(F)F)s1`: in the assay with Tetranychus urticae [3], the mortality at 500 ppm was < 80%.
Take `CC(C)Cc1nn(C)c(C(=O)Nc2nnc(C(F)(F)F)s2)c1Cl`: the mortality at 200 ppm in the assay with Tetranychus urticae [1] was > 80%.
With `Cn1nc(C(C)(C)C)c(Cl)c1C(=O)Nc1nnc(C(F)(F)C(F)(F)C(F)(F)F)s1`, the mortality at 50 ppm with Tetranychus urticae [2] was > 80%.
The same measure, in the same setting: then `Cc1nc(C(C)(C)C)sc1C(=O)Nc1nnc(C(F)(F)C(F)(F)C(F)(F)C(F)(F)F)s1`, with > 80%.
